Experimental findings from patent US8722681B2, “N-sulfonyl thiazolylpiperazine derivatives and related N-sulfonyl heterocyclic derivatives for the treatment of neuro degenerative diseases” (NV reMYND, priority 2007, dated 2014) are described below.

This experiment deals with M17-SYNwt cells. Description: α-synuclein cytotoxicity assay (LDH leakage from paraquat-treated M17-SYNwt cells). To be noted: Table 2; for EC50: M17-SYNwt cells, paraquat 32 mM, 40 hours, LDH activity; for % inh. (percentage inhibition): inhibition of synuclein toxicity at most effective concentration relative to untreated paraquat cells. It counts as cell-based, human. From the text: An α-synuclein expression plasmid was constructed by sub-cloning the NcoI/XhoI fragment from 212T-SYN(WT) (Griffioen et al., Biochem Biophys Acta (2006) 1762(3):312-318) containing the cDNA of human wild type α-synuclein correspondingly into a standard mammalian expression vector pcDNA3.1 resulting in plasmid pcDNA3.1-SYNwt. Plasmid pcDNA3.1 and pcDNA3.1-SYNwt were transfected to human neuroblastoma cells (ATCC No. CRL-2267) and independent clonal lines with the plasmids stably integrated into the genome were selected. […] Over-expression of α-synuclein in M17-SYNwt cell lines was confirmed by Western analysis.
Due to the high levels of α-synuclein M17-SYNwt cells are exquisitely sensitivity to paraquat, a well-known risk factor of synuclein-dependent neuronal degeneration. In degenerated or dead cells lactate dehydrogenase (LDH) is leaked out of the cells into the extracellular environment due to a loss of plasma-membrane integrity. This principle was used to determine cytotoxicity by quantifying the level of leaked LDH into the growth medium.
The detailed method for determining α-synuclein cytotoxicity was as follows: From appropriate precultures of M17 and M17-SYN cells were seeded at 50000 cells/cm^2 in Optimem Reduced Serum without phenol red (InVitrogen, Cat. 31985-047) supplemented with 5% fetal calf serum, 1 mM sodium pyruvate, 1×non-essential amino acids, 500 μg/ml G418 0.5×antibiotic/antimycotic. After 3 hours of incubation at 37° C./5% CO2 paraquat was added to the cells (final concentration of 32 mM), together with the test compound and the cells were further incubated for 40 hours. Subsequently, LDH activity was determined using Promega Cytotox 96 Non-Radioactive cytotoxicity assay, (Cat. G1780) according the supplier's instructions.
This α-synuclein expressing neuroblastoma cells made it possible to assess the ability of novel compounds to counteract α-synuclein cytotoxicity. […] Since this method monitors leaked LDH from degenerated or dead cells only non-toxic compounds will be identified as active inhibitors of α-synuclein-mediated cytotoxicity. Lack of toxicity is an important characteristic for compounds to be used as a medicament to patients in need. A compound was considered to be active in this test when it inhibits α-synuclein cytotoxicity by more than 25% relative to untreated M17-SYNwt cells at a concentration of 20 μg/mL or lower. In the experiments, the control group consisted of M17-SYNwt cells treated with DMSO, the untreated paraquat group consisted of M17-SYNwt cells treated with paraquat and DMSO, and the treated paraquat group consisted of M17-SYNwt cells treated with paraquat and the test compound dissolved in DMSO.
Percent inhibition was calculated as the synuclein toxicity inhibition by the compound in treated paraquat cells, relative to the synuclein cytotoxicity in untreated paraquat cells.
The compounds from table 1 were screened for activity using the α-synuclein cytotoxicity assay as described above. Dose responses were carried out on all compounds found to be active (10 point curves in duplicate).
Background: LDH in the medium is a marker of cell lysis.

The term EC50 denotes the concentration at which the effect is half-maximal. In the case of `COC(=O)COc1ccc(S(=O)(=O)N2CCN(c3nc(-c4ccc(C)cc4)cs3)CC2)cc1` [Compound 33, Methyl 2-(4-(4-(4-p-tolylthiazol-2-yl)piperazin-1-ylsulfonyl)phenoxy)acetate], the “% inh. (percentage inhibition)” value is given as 21%. Besides, the EC50 (Homo sapiens) was determined as 51.6 nM.
In the same order, the values of `CC(=O)NCCc1ccc(S(=O)(=O)N2CCN(c3nc(-c4ccccc4)cs3)CC2)cc1` [Compound 34, N-(4-(4-(4-phenylthiazol-2-yl)piperazin-1-ylsulfonyl)phenethyl)acetamide] are 46% and 3090 nM.
With `COc1cccc(-c2csc(N3CCN(S(=O)(=O)c4ccc(F)cc4)CC3)n2)c1` [Compound 35, 1-(4-fluorophenylsulfonyl)-4-(4-(3-methoxyphenyl)thiazol-2-yl)piperazine], the EC50 worked out at 216 nM and the “% inh. (percentage inhibition)” value amounted to 90%.
Turning to `COc1ccc(OC)c(S(=O)(=O)N2CCN(c3nc(-c4ccccc4)cs3)CC2)c1` [Compound 36, 1-(2,5-dimethoxyphenylsulfonyl)-4-(4-phenylthiazol-2-yl)piperazine], the “% inh. (percentage inhibition)” value is 121%. For the same molecule, the concentration for a half-maximal effect (EC50) (Homo sapiens) was 950 nM.
For `COc1ccc(OC)c(S(=O)(=O)N2CCN(c3nc(-c4ccc(Cl)cc4)cs3)CC2)c1` [Compound 37, 1-(4-(4-chlorophenyl)thiazol-2-yl)-4-(2,5-dimethoxyphenylsulfonyl)piperazine], the “% inh. (percentage inhibition)” value is 74%. Further, the EC50 (Homo sapiens) amounted to 1290 nM.
In the same order, the values of `COc1ccc(-c2csc(N3CCN(S(=O)(=O)c4ccc(OC)c(OC)c4)CC3)n2)cc1` [Compound 38, 1-(3,4-dimethoxyphenylsulfonyl)-4-(4-(4-methoxyphenyl)thiazol-2-yl)piperazine] are 65% and 1060 nM.
In the same order, the values of `COc1ccc(-c2csc(N3CCN(S(=O)(=O)c4cc(OC)ccc4OC)CC3)n2)cc1` [Compound 39, 1-(2,5-dimethoxyphenylsulfonyl)-4-(4-(4-methoxyphenyl)thiazol-2-yl)piperazine] are 107% and 6750 nM.
Consider `Cc1ccc(S(=O)(=O)N2CCN(c3nc(-c4ccccc4)cs3)CC2)cc1` [Compound 44, 1-(4-phenylthiazol-2-yl)-4-tosylpiperazine], for which the “% inh. (percentage inhibition)” value is listed as 72%. This molecule also came in with an EC50 (Homo sapiens) of 197 nM.
For the molecule `COc1ccc(S(=O)(=O)N2CCN(Cc3nc(-c4ccc(F)cc4)cs3)CC2)cc1` [Compound 47, 1-((4-(4-fluorophenyl)thiazol-2-yl)methyl)-4-(4-methoxyphenylsulfonyl)piperazine], the “% inh. (percentage inhibition)” value was 86%. In addition, the EC50 (Homo sapiens) was found to be 39.9 nM.
Take `COc1ccc(S(=O)(=O)N2CCC(c3nc(-c4ccc(F)cc4)cs3)CC2)cc1` [Compound 48, 4-(4-(4-fluorophenyl)thiazol-2-yl)-1-(4-methoxyphenylsulfonyl)piperidine]: the “% inh. (percentage inhibition)” value is recorded as 90%. Besides, under “Homo sapiens”, the EC50 was determined as 49.4 nM.
Regarding `COc1ccc(S(=O)(=O)N2CCN(c3nc(-c4ccncc4)cs3)CC2)cc1` [Compound 49, 1-(4-methoxyphenylsulfonyl)-4-(4-(pyridin-4-yl)thiazol-2-yl)piperazine], the “% inh. (percentage inhibition)” value was found to be 114%. The EC50 (Homo sapiens) came to 75 nM.
Taken in the same sequence, the figures for `COc1ccc(F)cc1S(=O)(=O)N1CCN(c2nc(-c3ccc(C)cc3)cs2)CC1` [Compound 50, 1-(5-fluoro-2-methoxyphenylsulfonyl)-4-(4-(4-methylphenyl)thiazol-2-yl)piperazine] were 104% and 1770 nM.
In the case of `COc1cc(F)ccc1S(=O)(=O)N1CCN(c2nc(-c3ccc(C)cc3)cs2)CC1` [Compound 51, 1-(4-fluoro-2-methoxyphenylsulfonyl)-4-(4-(4-methylphenyl)thiazol-2-yl)piperazine], the “% inh. (percentage inhibition)” value is on record as 88%. For the same molecule, a half-maximal effect (Homo sapiens) (EC50) was put at 2500 nM.
Taken in the same sequence, the figures for `O=S(=O)(c1cccnc1)N1CCN(c2nc(-c3ccc(F)cc3)cs2)CC1` [Compound 54, 1-(4-(4-fluorophenyl)thiazol-2-yl)-4-(pyridin-3-ylsulfonyl)piperazine] were 91% and 1230 nM.
Consider `Cc1n[nH]c(C)c1S(=O)(=O)N1CCN(c2nc(-c3ccc(F)cc3)cs2)CC1` [Compound 55, 1-(4-(4-fluorophenyl)thiazol-2-yl)-4-(3,5-dimethyl-1H-pyrazol-4-ylsulfonyl)piperazine], for which the “% inh. (percentage inhibition)” value stood at 91%. This molecule also gave an EC50 (Homo sapiens) of 657 nM.
For `O=S(=O)(c1ccc(Cl)s1)N1CCN(c2nc(-c3ccccc3)cs2)CC1` [Compound 56, 1-(5-chlorothiophen-2-ylsulfonyl)-4-(4-phenylthiazol-2-yl)piperazine], the “% inh. (percentage inhibition)” value is listed as 98%. Under “Homo sapiens”, this molecule had an EC50 of 752 nM.
In the same order, the values of `COc1ccc(-c2csc(N3CCN(S(=O)(=O)c4cccs4)CC3)n2)cc1` [Compound 57, 1-(thiophen-2-ylsulfonyl)-4-(4-(4-methoxyphenyl)thiazol-2-yl)piperazine] are 88% and 721 nM.
Taken in the same sequence, the figures for `O=S(=O)(c1cccs1)N1CCN(c2nc(-c3ccc(Cl)cc3)cs2)CC1` [Compound 58, 1-(thiophen-2-ylsulfonyl)-4-(4-(4-chlorophenyl)thiazol-2-yl)piperazine] were 99% and 3750 nM.
In the same order, the values of `O=[N+]([O-])c1ccc(-c2csc(N3CCN(S(=O)(=O)c4cccs4)CC3)n2)cc1` [Compound 60, 1-(thiophen-2-ylsulfonyl)-4-(4-(4-nitrophenyl)thiazol-2-yl)piperazine] are 79% and 1240 nM.
With `O=S(=O)(N1CCCC1)N1CCN(c2nc(-c3ccccc3)cs2)CC1` [Compound 61, 1-(4-phenylthiazol-2-yl)-4-(pyrrolidin-1-ylsulfonyl)piperazine], the “% inh. (percentage inhibition)” value turned out to be 127%. Further, under “Homo sapiens”, the 50% effective concentration (EC50) came to 1740 nM.
In the same order, the values of `Cc1ccc(-c2csc(N3CCN(S(=O)(=O)N4CCCC4)CC3)n2)cc1` [Compound 62, 1-(4-(4-methylphenyl)thiazol-2-yl)-4-(pyrrolidin-1-ylsulfonyl)piperazine] are 112% and 1930 nM.
Taken in the same sequence, the figures for `COc1ccc(-c2csc(N3CCN(S(=O)(=O)N4CCCC4)CC3)n2)cc1` [Compound 63, 1-(4-(4-methoxyphenyl)thiazol-2-yl)-4-(pyrrolidin-1-ylsulfonyl)piperazine] were 69% and 3180 nM.
`O=S(=O)(c1ccc2c(c1)OCCO2)N1CCN(c2nc(-c3ccccc3)cs2)CC1` [Compound 69, 1-(2,3-dihydrobenzo[b][1,4]dioxin-6-ylsulfonyl)-4-(4-phenylthiazol-2-yl)piperazine]: the “% inh. (percentage inhibition)” value came out at 89%. Further, the EC50 (Homo sapiens) came to 434 nM.
In the same order, the values of `COc1ccc(-c2csc(N3CCN(S(=O)(=O)c4ccc5c(c4)OCCO5)CC3)n2)cc1` [Compound 70, 1-(2,3-dihydrobenzo[b][1,4]dioxin-6-ylsulfonyl)-4-(4-(4-methoxyphenyl)thiazol-2-yl)piperazine] are 83% and 1960 nM.
